Test [1] can be described thus: cells. Type of test: functional, cell-based.
The nature of test [2]: inhibitors of SNCA 5'UTR-driven reporter translation, confirmation, H4 neuroglioma cells, luminescence (AID 1988). Type of test: functional, cell-based.
Test [3] is described as follows: Luminescence Cell-Based Dose Response HTS to Identify Inhibitors of 5'UTR Stem-Loop Driven Prion Protein mRNA Translation in H4 Neuroglioblastoma Cells. [Related pubchem assays: 1827 (Project Summary), 1813 (Primary HTS)]. Type of test: functional.
Test [4] deals with T1, Nuclear receptor subfamily 0 group B member 1 (Homo sapiens, UniProt P51843).
T1 sequence (P51843 whole entry): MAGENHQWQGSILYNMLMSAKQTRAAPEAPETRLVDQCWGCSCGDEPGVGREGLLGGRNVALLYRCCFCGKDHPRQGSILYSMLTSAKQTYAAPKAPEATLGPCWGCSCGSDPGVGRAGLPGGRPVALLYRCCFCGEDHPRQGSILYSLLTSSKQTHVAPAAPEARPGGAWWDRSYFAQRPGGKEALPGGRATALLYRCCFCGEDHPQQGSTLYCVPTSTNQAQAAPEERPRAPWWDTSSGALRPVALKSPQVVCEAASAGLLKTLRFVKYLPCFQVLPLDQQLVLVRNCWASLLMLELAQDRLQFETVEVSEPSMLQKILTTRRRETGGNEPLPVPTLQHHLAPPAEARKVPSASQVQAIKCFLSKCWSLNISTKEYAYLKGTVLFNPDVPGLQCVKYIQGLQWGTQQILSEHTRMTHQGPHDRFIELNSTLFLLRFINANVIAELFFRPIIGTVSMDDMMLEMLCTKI
Type of test: functional, cell-based.

The nature of test [5]: inhibitors of firefly luciferase expression or activity, dose response, H4 neuroglioma cells, luminescence (AID 1990). Type of test: functional, cell-based.
Test [6] in a line: cells. Type of test: functional, cell-based. The source holds these as a separate data set.
Test [7] in a line: cells. Format: functional, cell-based. The source holds these as a separate data set.
The subject of test [8] is HEK293. Put plainly: inhibitors of LMP1-driven NF-kB reporter, dose response, cell-based, HEK293, luciferase, cherry-pick (AID 588343). Format: functional. As to conditions: Homo sapiens.
The nature of test [9]: cells. Format: functional, cell-based. This is another data set of the same source.
Test [10] is described as follows: cells. Type of test: functional, cell-based. The source holds these as a separate data set.
Test [11] deals with T2, Heat shock factor protein 1 (Mus musculus, UniProt P38532).
T2 sequence (P38532 whole entry): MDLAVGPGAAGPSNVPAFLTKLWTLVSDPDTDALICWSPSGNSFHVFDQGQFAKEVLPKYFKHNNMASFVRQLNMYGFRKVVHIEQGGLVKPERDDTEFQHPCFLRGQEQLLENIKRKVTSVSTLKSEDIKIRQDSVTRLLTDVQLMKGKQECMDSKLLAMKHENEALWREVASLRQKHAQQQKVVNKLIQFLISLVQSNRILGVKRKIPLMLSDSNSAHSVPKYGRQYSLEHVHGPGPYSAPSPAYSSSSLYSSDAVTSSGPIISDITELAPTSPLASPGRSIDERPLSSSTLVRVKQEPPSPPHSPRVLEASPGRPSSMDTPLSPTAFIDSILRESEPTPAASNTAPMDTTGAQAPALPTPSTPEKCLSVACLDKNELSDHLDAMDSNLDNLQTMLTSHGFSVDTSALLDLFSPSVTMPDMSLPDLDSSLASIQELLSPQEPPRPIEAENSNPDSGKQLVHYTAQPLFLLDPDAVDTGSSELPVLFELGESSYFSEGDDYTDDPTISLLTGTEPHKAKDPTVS
Put plainly: inhibition of MG132-induced HSE-luciferase signal, confirmation, cell-based, NIH3T3, luminescence, dose retest (AID 2382).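 Further: NIH3T3 fibroblasts with HSF1-driven luciferase reporter stressed by proteasome inhibitor MG132; luminescence from HSF1-driven luciferase expression after 8 hours of MG132 stress.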 Type of test: functional.

Test [12] in a line: ADAM10 protease inhibitors, dose response, selectivity assay for ADAM17 exosite inhibitor project, biochemical, FRET peptide substrate, recombinant human ADAM10 (AID 743259).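 Further: ADAM10 enzyme cleaving a FRET peptide substrate.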
Test [13] has as its target T3, fMet-Leu-Phe receptor (Homo sapiens, UniProt P21462).
T3 sequence (P21462 whole entry): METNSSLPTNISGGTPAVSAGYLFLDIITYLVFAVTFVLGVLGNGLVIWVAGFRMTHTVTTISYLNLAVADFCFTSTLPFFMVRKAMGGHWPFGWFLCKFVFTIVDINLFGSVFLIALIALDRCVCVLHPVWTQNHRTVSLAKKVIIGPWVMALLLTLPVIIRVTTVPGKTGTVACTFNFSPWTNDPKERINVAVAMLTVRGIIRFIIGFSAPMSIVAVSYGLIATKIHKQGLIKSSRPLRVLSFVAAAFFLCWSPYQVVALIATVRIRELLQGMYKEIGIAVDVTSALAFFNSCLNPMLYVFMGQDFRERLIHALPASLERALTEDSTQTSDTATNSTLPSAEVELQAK
Put plainly: FPR ligands, dose response (AID 519). Format: functional.

The target of test [14] is Sphingosine 1-phosphate receptor 2 (Homo sapiens, UniProt O95136). Put plainly: Dose Response Cell Based Assay for Antagonists of the S1P2 Receptor. [Related pubchem assays: 856, 736 ]. Format: functional.
Chain of Sphingosine 1-phosphate receptor 2 (O95136 whole entry): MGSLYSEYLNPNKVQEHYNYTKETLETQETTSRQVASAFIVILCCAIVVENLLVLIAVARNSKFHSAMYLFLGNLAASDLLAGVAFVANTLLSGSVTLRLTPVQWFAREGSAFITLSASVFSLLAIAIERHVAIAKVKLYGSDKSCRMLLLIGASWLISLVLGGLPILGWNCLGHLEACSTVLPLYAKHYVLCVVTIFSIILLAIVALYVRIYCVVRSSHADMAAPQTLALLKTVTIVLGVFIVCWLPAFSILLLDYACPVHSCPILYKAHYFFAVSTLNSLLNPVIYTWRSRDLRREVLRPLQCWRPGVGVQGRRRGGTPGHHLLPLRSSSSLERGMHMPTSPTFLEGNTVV
Test [15] has as its target T4, RNA-editing ligase 1, mitochondrial (Trypanosoma brucei brucei, UniProt P86926).
T4 sequence (P86926 whole entry): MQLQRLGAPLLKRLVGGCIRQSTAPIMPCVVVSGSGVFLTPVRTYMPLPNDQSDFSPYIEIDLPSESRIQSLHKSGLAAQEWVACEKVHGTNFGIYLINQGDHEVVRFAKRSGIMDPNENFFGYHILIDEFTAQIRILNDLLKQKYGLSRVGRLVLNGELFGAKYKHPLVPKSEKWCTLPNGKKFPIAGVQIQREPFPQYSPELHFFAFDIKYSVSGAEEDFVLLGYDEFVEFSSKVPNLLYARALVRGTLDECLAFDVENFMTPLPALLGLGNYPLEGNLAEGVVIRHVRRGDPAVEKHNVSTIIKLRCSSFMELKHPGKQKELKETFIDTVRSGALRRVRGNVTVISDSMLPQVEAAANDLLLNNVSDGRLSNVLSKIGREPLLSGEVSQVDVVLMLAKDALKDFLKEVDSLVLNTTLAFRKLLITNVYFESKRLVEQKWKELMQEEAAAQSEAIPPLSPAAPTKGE
Put plainly: TbREL1 ligase inhibitors, dose response, biochemical, fluorescence, Trypanosoma brucei (AID 1117295). Format: functional.

Test [16] is described as follows: Counterscreen for activators of the function of SWI/SNF related, matrix associated, actin dependent regulator of chromatin, subfamily a, member 2 (SMARCA2, BRM): Luminescence-based cell-based high throughput dose response assay to identify non-selective compounds using the VP16 reporter assay. Format: functional.
Test [17] deals with SWI/SNF-related matrix-associated actin-dependent regulator of chromatin subfamily A member 2 (Homo sapiens, UniProt P51531). Put plainly: Luminescence-based cell-based high throughput dose response assay to identify activators of the function of SWI/SNF related, matrix associated, actin dependent regulator of chromatin, subfamily a, member 2 (SMARCA2, BRM). Type of test: functional.
Chain of SWI/SNF-related matrix-associated actin-dependent regulator of chromatin subfamily A member 2 (P51531 whole entry): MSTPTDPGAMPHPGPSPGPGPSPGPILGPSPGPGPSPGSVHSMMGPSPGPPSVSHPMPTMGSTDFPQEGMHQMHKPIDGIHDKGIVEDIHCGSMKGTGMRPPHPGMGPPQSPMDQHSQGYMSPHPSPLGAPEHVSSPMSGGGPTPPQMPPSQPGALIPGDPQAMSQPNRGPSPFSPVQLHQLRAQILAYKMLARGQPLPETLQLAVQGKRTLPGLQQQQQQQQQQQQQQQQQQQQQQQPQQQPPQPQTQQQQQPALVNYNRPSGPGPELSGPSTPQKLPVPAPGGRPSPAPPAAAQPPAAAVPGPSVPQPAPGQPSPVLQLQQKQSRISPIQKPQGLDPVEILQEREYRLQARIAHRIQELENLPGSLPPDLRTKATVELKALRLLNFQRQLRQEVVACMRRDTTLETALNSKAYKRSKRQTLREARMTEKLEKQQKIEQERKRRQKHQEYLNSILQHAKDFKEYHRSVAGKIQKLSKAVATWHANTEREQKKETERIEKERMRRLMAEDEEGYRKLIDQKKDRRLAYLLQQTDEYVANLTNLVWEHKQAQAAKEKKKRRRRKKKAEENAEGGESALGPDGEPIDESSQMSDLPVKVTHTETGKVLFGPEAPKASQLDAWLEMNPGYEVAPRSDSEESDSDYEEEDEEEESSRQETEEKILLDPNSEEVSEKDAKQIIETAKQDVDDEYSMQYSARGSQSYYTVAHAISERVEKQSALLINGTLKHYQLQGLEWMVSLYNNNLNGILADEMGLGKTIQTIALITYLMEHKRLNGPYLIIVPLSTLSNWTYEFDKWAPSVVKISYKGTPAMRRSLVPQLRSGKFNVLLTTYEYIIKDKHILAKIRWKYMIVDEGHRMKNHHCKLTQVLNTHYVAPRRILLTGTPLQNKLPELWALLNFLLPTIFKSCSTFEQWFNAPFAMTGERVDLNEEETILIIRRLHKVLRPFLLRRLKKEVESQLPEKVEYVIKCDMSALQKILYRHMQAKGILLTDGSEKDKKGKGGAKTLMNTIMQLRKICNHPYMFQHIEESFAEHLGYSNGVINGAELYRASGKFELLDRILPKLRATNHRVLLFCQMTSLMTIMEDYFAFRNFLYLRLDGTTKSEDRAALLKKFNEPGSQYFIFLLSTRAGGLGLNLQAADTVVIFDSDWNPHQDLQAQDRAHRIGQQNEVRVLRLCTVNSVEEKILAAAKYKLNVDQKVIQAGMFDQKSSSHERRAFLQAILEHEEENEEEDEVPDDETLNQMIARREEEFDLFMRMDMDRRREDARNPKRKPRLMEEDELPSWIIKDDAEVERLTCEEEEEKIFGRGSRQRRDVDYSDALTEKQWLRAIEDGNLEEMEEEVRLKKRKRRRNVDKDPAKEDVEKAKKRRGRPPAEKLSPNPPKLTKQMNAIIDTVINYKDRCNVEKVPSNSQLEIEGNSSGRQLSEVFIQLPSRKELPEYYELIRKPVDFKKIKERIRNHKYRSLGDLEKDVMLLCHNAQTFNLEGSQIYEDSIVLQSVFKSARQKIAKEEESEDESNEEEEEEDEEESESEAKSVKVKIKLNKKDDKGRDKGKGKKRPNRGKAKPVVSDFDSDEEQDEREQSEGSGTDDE

Test [18] deals with T5, Adenosylmethionine-8-amino-7-oxononanoate aminotransferase (Mycobacterium tuberculosis, UniProt P9WQ81).
T5 sequence (P9WQ81 whole entry): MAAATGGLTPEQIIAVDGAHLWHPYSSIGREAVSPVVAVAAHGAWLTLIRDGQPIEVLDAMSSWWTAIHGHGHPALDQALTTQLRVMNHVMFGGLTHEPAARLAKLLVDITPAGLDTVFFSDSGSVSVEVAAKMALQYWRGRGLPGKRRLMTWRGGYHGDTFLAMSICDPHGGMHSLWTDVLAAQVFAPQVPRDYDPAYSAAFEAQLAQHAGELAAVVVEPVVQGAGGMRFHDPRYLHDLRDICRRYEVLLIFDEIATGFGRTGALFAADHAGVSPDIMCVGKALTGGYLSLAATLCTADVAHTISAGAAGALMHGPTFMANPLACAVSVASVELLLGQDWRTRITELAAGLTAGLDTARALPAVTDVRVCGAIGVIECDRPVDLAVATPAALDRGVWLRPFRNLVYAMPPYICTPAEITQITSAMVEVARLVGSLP
Put plainly: Mycobacterium tuberculosis BioA enzyme inhibitor Measured in Biochemical System Using Plate Reader - 2163-02_Inhibitor_Dose_CherryPick_Activity. Type of test: functional, Mycobacterium tuberculosis UT205.

A short description of test [19]: THP-1 cell cytotoxicity, dose response, cytotoxicity control for Vif-APOBEC3G degradation inhibitor project, THP-1 cells (AID 1117359). Type of test: functional. As to conditions: Human immunodeficiency virus 1, THP-1.
Test [20] in a line: Luminescence Cell-Based Dose Retest to Confirm Inhibitors of Cancer Stem Cells. [Related pubchem assays (depositor defined):AID2717, AID2721]. As to conditions: Homo sapiens. Format: functional.
A short description of test [21]: CEM21 lymphoblast cell cytotoxicity, dose response, cytotoxicity control for viral fusion inhibitor project, CellTiter-Glo luminescence, cherry-picked (AID 652042).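 Further: potency for signal decrease meaning cytotoxicity.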 Type of test: functional, cell-based. In general terms: In ATP-based viability assays light output follows the ATP content of the culture.
A short description of test [22]: inhibitors of clade B AD8 Env fusion, dose response, cell-based, cherry-pick (AID 652062).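 Further: luciferase signal from cell-cell fusion driven by HIV-1 clade B AD8 Env; potency is for inhibitors of fusion seen as a drop in luminescence.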 Format: functional.
Test [23] can be described thus: inhibitors of HIV Env-driven cell fusion, dose response, cherry-pick (AID 652057). Type of test: functional, cell-based.
Test [24] can be described thus: ZM109 Env clade C HIV-1 fusion inhibitors, dose response, HeLa effector, CEM target cells, luciferase, cherry-pick (AID 652058). Type of test: functional, cell-based.
The nature of test [25]: CellTiter-Glo luminescent dose response of DLD-1 viability loss (AID 1117352). Format: functional.
The nature of test [26]: cytotoxicity toward HT-29 cells – cell-based, CellTiter-Glo luminescence, IC50, dose response (AID 1117330). Format: functional.
Test [27] is described as follows: cytotoxicity toward Colo320 cells – cell-based, CellTiter-Glo luminescence, IC50, dose response (AID 1117334). Type of test: functional. Conditions: COLO 320.
A short description of test [28]: cytotoxicity toward HCT116 cells – cell-based, CellTiter-Glo luminescence, IC50, dose response (AID 1117332). Type of test: functional. As to conditions: HCT-116.
Test [29] is described as follows: Concentration-dependent survival of SW480 colon cancer line, luminescence detection with CellTiter-Glo, half-maximal inhibitory concentration (AID 1117338). Format: functional.
A short description of test [30]: RKO cell viability reduction, dose response, CellTiter-Glo luminescence (AID 1117322). Format: functional.

Structures can show the parent of a compound that is named as a salt. Calls of active or inactive are those of the source.

For orientation: IC50 means the concentration at which inhibition is half-maximal. By EC50 is commonly meant the midpoint of the concentration-response curve. In general, AC50 refers to the concentration at which the activity in the assay is half-maximal. As usually defined, the Ki is a measure of affinity in units of concentration, obtained from inhibition or displacement. As usually defined, the CC50 is the concentration giving 50% cytotoxicity.

Regarding `Cc1c(C(=O)OCC(C)C)[nH]c2c1C(=O)CC(c1ccco1)C2` (stereo unspecified), the IC50 in test [1] and in test [4] was > 67.5 µM (inactive) throughout. The concentration for a half-maximal effect (EC50) in [2] is 212 nM (active); in test [3], 1.5 µM (active); in [5] it was 1.95 µM (active).

With `c1ccc(CCN2CN(CCCN3CCOCC3)c3nc4ccccc4n3C2)cc1`, in [6], the EC50 was > 29.9 µM (inactive). Moreover, the IC50 in [7] is > 29.9 µM (inactive).

For the compound `CC(C)Oc1ccc(C(=O)Nc2nnc(SCC(=O)N3CCOCC3)s2)cc1`, the IC50 in test [1] and in test [4] was > 67.5 µM (inactive) each time. Besides, in [8], the AC50 was 897 nM (active).

`COc1ccc(C2NC(S)=NC3=C2CCCC3=C2SCCS2)cc1` (stereo unspecified): the EC50 in test [9] was > 350 µM (not active); in test [10], 10.6 µM (active); in test [11] it was > 195 µM (not active). For the same compound, the IC50 in [1] is > 67.5 µM (inactive); in test [4] it was 7.9 µM (active).

In the case of `C[C@H](NC(=O)c1[nH]cnc1C(=O)NC(c1ccccc1)c1ccccc1)C(=O)OCc1ccccc1`, the IC50 in test [12] is > 69.5 µM (inactive).

Take `COc1cccc(-c2nc(CS(=O)(=O)CC(=O)NCCC(C)C)c(C)o2)c1`: the Ki in test [13] is > 66.7 µM (inactive).

For `Cc1ccc(F)c(NC(=O)C2CCCCC2C(=O)O)c1` (stereo unspecified), the Ki in [13] is > 66.7 µM (inactive).

As for `Cc1n[nH]c(C)c1N1C(=O)c2cccc3c(Br)ccc(c23)C1=O`, the IC50 in test [14] is reported as > 75.5 µM (not active).

For `CC(C)Nc1nc(NCCOc2ccccc2Cl)c2sc(-c3ccccc3)cc2n1`, the IC50 in test [15] was > 96.6 µM (inactive).

For `CCN(CC)c1ccc2cc(C(=O)c3cccs3)c(=O)oc2c1`, the EC50 in test [16] and in [17] was > 91 µM (inactive) in each case. Besides, the AC50 in test [18] is 195 nM (active).

Regarding `Cc1ccc(/C=N/c2ccccc2C(N)=O)s1`, the CC50 in test [19] was 2.54 µM (active). In [20], the AC50 was 2.44 µM (active).

Consider `O=C(C[C@H]1C=C[C@@H](NC(=O)c2cccc(F)c2)[C@@H](CO)O1)NCc1ccc(Oc2ccccc2)cc1`, for which the AC50 is 46.3 µM (active) in test [21], 2.83 µM (active) in test [22], 988 nM (active) in [23] and 725 nM (active) in test [24].

Consider `COC(=O)C1=C(C)N(Cc2ccccc2C(F)(F)F)C(NCc2ccccc2)=NC1c1cccc(F)c1` (stereo unspecified), for which the IC50 in test [15] is > 96.6 µM (inactive).

On to `CC(C)(C)NCC(O)c1cc(O)cc(O)c1` (stereo unspecified) [TERBUTALINE SULFATE], for which the IC50 in [25], in [26], in test [27], in test [28], in test [29] and in test [30] was > 20 µM (inactive) each time.

These data come from ChEMBL document CHEMBL1201862, “PubChem BioAssay data set” (2004).
